{
  "source": "patent US4748274A",
  "about": "“4-hydroxy-4-(substituted alkenyl)cyclohexanecarboxylic acids” (Merrell Dow Pharmaceuticals Inc., priority 1986, dated 1988)",
  "key": {"[1]": {"target": "T1, leukotriene D4 (longitudinal muscle of guinea pig ileum) (Cavia porcellus, UniProt Q2NNR5)", "T1 construct": "The longitudinal muscle was then carefully dissected from the circular muscle of the ileum; from tissue; host or cells: guinea pig terminal ileum, longitudinal muscle segments", "T1 sequence (Q2NNR5 1-340)": "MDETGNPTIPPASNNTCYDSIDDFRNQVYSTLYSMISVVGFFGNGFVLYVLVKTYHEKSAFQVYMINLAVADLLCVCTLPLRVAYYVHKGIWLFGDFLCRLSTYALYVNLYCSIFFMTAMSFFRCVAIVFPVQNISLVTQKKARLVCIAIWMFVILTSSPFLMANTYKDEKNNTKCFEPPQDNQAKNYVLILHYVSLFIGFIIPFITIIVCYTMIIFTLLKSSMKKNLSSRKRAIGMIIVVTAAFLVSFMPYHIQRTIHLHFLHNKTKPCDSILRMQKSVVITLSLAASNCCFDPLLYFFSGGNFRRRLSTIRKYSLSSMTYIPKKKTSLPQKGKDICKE", "experiment": "Antagonism of leukotriene D4 contraction, longitudinal muscle of guinea pig ileum", "type": "cell-based", "conditions": "LTD4 concentration-response, 15 min preincubation, 1 μM indomethacin, 37° C., Arunlakshana and Schild method; for Kb: read-out: G.P. ILEUM pA2 (LTD4) (converted)", "method": "Longitudinal Muscle of Guinea Pig Ileum\nMale, Hartley-Duncan, guinea pigs were sacrificed by cervical dislocation. The terminal portion of the ileum was removed, rinsed, and placed in Burn's modified Tyrode's solution. The longitudinal muscle was then carefully dissected from the circular muscle of the ileum. The longitudinal muscle was cut into 1-2 cm. segments which were placed in a tissue bath containing oxygenated Burn's modified Tyrode's solution warmed to 37° C. A tension of 1.0 gram was then placed on each segment of muscle. After equilibration for 1 hour, 1 μM Indomethacin was added to each bath. After 5 minutes, each tissue segment was then exposed to a concentration of 60 nM leukotriene D4. This response was then considered to be the initial maximal contraction that each segment will produce. After washing the tissue several times, over a 1 hour period, 1 μM lndomethacin was again added to each bath. After a 5 minute period the test agent or vehicle was added to the bath. After 15 minutes, a concentration-response curve was generated using cumulatively increasing concentrations of leukotriene D4. The concentration-response was then compared to the initial maximum contraction. A test compound was considered active, if at concentrations up to 100 μM, it produces a significant shift to the right of the concentration-response relationship to leukotriene D4. The antagonist activity was quantitated in terms of a pA2 value calculated according to the method described by Arunlakshana and Schild, (Brit. J. Pharmac. Chemotherap. 14; 48, 1959)."}, "[2]": {"test_system": "leukotriene D4 (induced bronchoconstriction)", "experiment": "In vivo leukotriene D4 antagonist activity in anesthetized guinea pigs, modified Konzett-Rossler preparation", "parameters": "species or system guinea pig", "conditions": "LTD4 50 or 100 ng/kg i.v.", "method": "In Vivo Biological Activity\nCompounds of the present invention were also tested for in vivo leukotriene D4 antagonist activity in anesthetized guinea pigs using a modified Konzett-Rossler preparation. Specifically, the guinea pigs were anesthetized with sodium pentobarbital and surgically prepared for artificial ventilation by a constant volume respirator. The inflation pressure produced by the respirator was measured for each inflation of the guinea pigs' lungs. Increases in inflation pressure above baseline are indicative of bronchoconstriction. After establishing a baseline inflation pressure, bronchoconstriction was induced by an intravenous challenge with 50 or 100 ng/kg leukotriene D4. This response was considered the initial response. After the inflation pressure returned to baseline, the guinea pig was treated with the desired dosage of test compound or vehicle, given intravenously (i.v.) or intraduodenally (i.d.), and rechallenged with leukotriene D at one minute [following i.v. administration]or 5 and 20 minutes [following i.d. administration]. This response was then compared to the initial response and the % inhibition of the response was determined. The results can be summarized as follows, with the inhibition values given for administration by the i.d. route being the greater of the two results obtained."}, "[3]": {"target": "T2, 3H-LTD4 specific receptor (guinea pig lung membranes) (Cavia porcellus, UniProt Q2NNR5)", "T2 construct": "from tissue; host or cells: guinea pig lung membranes", "T2 sequence (Q2NNR5 1-340)": "T1 sequence (Q2NNR5 1-340)", "experiment": "3H-LTD4 specific receptor binding in guinea pig lung membranes", "conditions": "3H-LTD4, 50 mM Tris-HCl pH 7.6, 37° C., 20-40 min; read-out: G.P. LUNG SPECIFIC BINDING IC50", "method": "3H-LTD4 - Specific Receptor Binding in Guinea Pig Lung Membranes\nMale guinea pigs were sacrificed and the lungs were removed and placed in ice cold 50 mM Tris-HCl buffer, pH 7.4. The lungs were then homogenized with a Polytron homogenizer and the homogenate was centrifuged at 1000 g for 10 minutes at 4° C. The supernatant was then centrifuged at 30,000 g for 15 minutes at 4° C. to obtain the membrane pellet. This pellet was resuspended in 50 mM Tris-HCl to provide the working suspension of lung membranes. Binding assays were then carried out in 50 mM Tris-HCl at pH 7.6 and 37° C. using incubation periods of 20-40 min. Separation of bound ^3 H-LTD4 from free ^3 H-LTD4 were performed by rapid vacuum filtration through Whatman GF/B glass fiber filters using ice cold Tris-HCl buffer and three 4 ml washes. Filtration and washing were completed in less than 8 seconds. The radioactivity on the filters was then measured. Specific binding of ^3 H-LTD4 was defined as the binding of ^3 H-LTD4 in the absence of unlabelled LTD4 minus the binding of ^3 H-LTD4 in the presence of 2×10^-7 M unlabelled LTD4. Specific binding of ^3 H-LTD4 was 60-80% of total binding. […] In these tests increasing concentrations of the agent are used to block the ^3 H-LTD4 specific binding. The concentration that reduces the specific binding of ^3 H-LTD4 by 50% is termed the IC50."}, "[4]": {"conditions": "1.0 mg/kg i.d., greater of results at 5 and 20 minutes"}},
  "data": [
    {"smiles": "CCCCCCCCCCCCC/C=C\\[C@@H](SCC(=O)O)[C@]1(O)CC[C@H](C(=O)O)CC1", "note": "[Example 10D, [4(R)-[1α,4β,4(Z)]]-4-[1-[(carboxymethyl)thio]-2-hexadecenyl]-4-hydroxycyclohexanecarboxylic acid]", "values": [
      {"measurement": "Kb", "setting": "[1]", "result": 0.158, "unit": "nM"}
    ]},
    {"smiles": "CCCCCCCCCCCCC/C=C\\[C@@H](SCCC(=O)O)[C@]1(O)CC[C@H](C(=O)O)CC1", "note": "[Example 10F]", "values": [
      {"measurement": "Kb", "setting": "[1]", "result": 0.38, "unit": "nM"},
      {"measurement": "PERCENT INHIBITION", "setting": "[2]; 0.0002 mg/kg i.v., rechallenge at one minute", "result": 38, "unit": "%"},
      {"measurement": "PERCENT INHIBITION", "setting": "[2]; 0.002 mg/kg i.v., rechallenge at one minute", "result": 52, "unit": "%"},
      {"measurement": "PERCENT INHIBITION", "setting": "[2]; 0.02 mg/kg i.v., rechallenge at one minute", "result": 94, "unit": "%"},
      {"measurement": "PERCENT INHIBITION", "setting": "[2]; 0.1 mg/kg i.d., greater of results at 5 and 20 minutes", "result": 74, "unit": "%"},
      {"measurement": "PERCENT INHIBITION", "setting": "[2]; 0.2 mg/kg i.d., greater of results at 5 and 20 minutes", "result": 93, "unit": "%"}
    ]},
    {"smiles": "CCCCCCCCCCCCC/C=C\\C(SCCCC(=O)O)[C@]1(O)CC[C@H](C(=O)O)CC1", "note": "(relative stereo) [Example 10J, [1α,4β,4(Z)]-4-[1-[(3-carboxypropyl)thio]-2-hexadecenyl]-4-hydroxycyclohexanecarboxylic acid]", "values": [
      {"measurement": "IC50", "setting": "[3]", "result": 7100, "unit": "nM"},
      {"measurement": "Kb", "setting": "[1]", "result": 5.5, "unit": "nM"},
      {"measurement": "PERCENT INHIBITION", "setting": "[2]; 0.5 mg/kg i.d., greater of results at 5 and 20 minutes", "result": 48, "unit": "%"},
      {"measurement": "PERCENT INHIBITION", "setting": "[2]; [4]", "result": 53, "unit": "%"}
    ]},
    {"smiles": "CCCCCCCCCCCCC/C=C\\C(SCCC(=O)O)[C@]1(O)CC[C@H](C(=O)O)CC1", "note": "(relative stereo) [Example 10H, [1α,4β,4(Z)]-4-[1-[(2-CarbOxyethyl)thio]-2-hexadecenyl]-4-hydroxycyclohexanecarboxylic acid]", "values": [
      {"measurement": "IC50", "setting": "[3]", "result": 8700, "unit": "nM"},
      {"measurement": "Kb", "setting": "[1]", "result": 0.245, "unit": "nM"}
    ]},
    {"smiles": "CCCCCCCCCCCCC/C=C\\C(SCCC(=O)NCC(=O)O)[C@]1(O)CC[C@H](C(=O)O)CC1", "note": "(relative stereo) [Example 10L, [1α,4β,4(Z)]-4-[1-[[3-[(carboxymethyl)amino]-3oxopropyl]thio]-2-hexadecenyl]-4-hydroxycyclohexanecarboxylic acid]", "values": [
      {"measurement": "IC50", "setting": "[3]", "result": 8000, "unit": "nM"},
      {"measurement": "Kb", "setting": "[1]", "result": 2.69, "unit": "nM"},
      {"measurement": "PERCENT INHIBITION", "setting": "[2]; 0.5 mg/kg i.v., rechallenge at one minute", "result": 74, "unit": "%"},
      {"measurement": "PERCENT INHIBITION", "setting": "[2]; [4]", "result": 25, "unit": "%"}
    ]},
    {"smiles": "CCCCCCCCCCCCCC=CC(SCCC(=O)O)C1(O)CCC(C(=O)O)CC1", "note": "(stereo not drawn) [Example 11, [1α,4β,4(E)]-4-[1-[(2-carboxyethyl)thio-2hexadecenyl]-4-hydroxycyclohexanecarboxylic acid]", "values": [
      {"measurement": "G.P. ILEUM pA2 (LTD4)", "setting": "[1]", "result": 7.87}
    ]},
    {"smiles": "CCCCCCCCCCCCC/C=C\\C(SCCCC(=O)O)[C@]1(O)CC[C@@H](C(=O)O)CC1", "note": "(relative stereo) [Example 10I, [1α,4α,4(Z)]-4-[1-[(3-carboxypropyl)thio]-2-hexadecenyl]-4-hydroxycyclohexanecarboxylic acid]", "values": [
      {"measurement": "PERCENT INHIBITION", "setting": "[2]; 0.05 mg/kg i.v., rechallenge at one minute", "result": 19, "unit": "%"}
    ]}
  ]
}
